Consider four compounds from patent US3966745A, “Vinvamine series cycloalkyl-alkyl esters” (Synthelabo, priority 1973, dated 1976).

A short description of series [1]: Acute toxicity (LD50, mice, intraperitoneal). To be noted: mouse, in vivo, ip; intraperitoneal administration; Swiss mice of both sexes; method of Miller and Tainter. The method, then: The tests were carried out on mice of the Swiss strain of both sexes, each weighing 20 g on average. The LD50 's were calculated in accordance with the method of Miller and Tainter (Proc. Soc. exp. Biol. Med., 1944, 57, 261).

The test system of series [2] is mice. The experiment in a line: Hypobaric anoxia in mice (survival time). The format is in vivo, male mice of the Swiss strain. To be noted: for ED (100% increase in survival time): Mus musculus, ip, intraperitoneal administration, dose which increases survival time by 100%, residual pressure 19 cm of Hg, read-out: MAD (mean active dose), absolute value; for therapeutic index relative to that of vincamine (times more favourable): from LD50 and MAD, mice, intraperitoneal, versus vincamine. The text has this:
The mice are kept in an atmosphere which is depleted in oxygen by creating a partial vacuum. The degree of anoxia was chosen after preliminary tests. The survival time of the control and treated animals is noted.
The chamber into which the animals are introduced is a chemical desiccator, divided into 7 compartments. Calcium oxide is placed in this chamber in order to absorb the expired carbon dioxide. This desicator is connected to a vacuum pump and to a manometer to measure the residual pressure.
The injections are carried out using a volume of 0.5 ml per 20 g of body weight.
7 animals are introduced at the same time into the chamber, i.e. 1 control mouse (treated with physiological serum), 3 mice each treated with a different dose of a reference substance, and three mice each treated with a different dose of a test substance.
The chamber is then evacuated until the residual pressure therein is 19 cm of Hg (this is achieved in approximately 30 seconds).
The survival time i.e. the time until the animals stop breathing of each of the animals is then recorded. […] The percentage increases are calculated from values obtained for each batch of animals.
The reference substance was vincamine.

The LD50 is the dose at which mortality reaches 50%. A lower LD50 goes with greater toxicity.

Compound `CCC12CCCN3CCc4c(n(c5ccccc45)C(O)(C(=O)OCC4CC4)C1)C32` (stereo not shown) [SL 72-401, Cyclopropylmethyl vincaminate] had an LD50 in series [1] of 220 mg/kg. In addition, the ED (100% increase in survival time) in series [2] turned out to be 11 mg/kg.

In the case of `CCC12C=C(C(=O)OCC3CC3)n3c4c(c5ccccc53)CCN(CCC1)C42` (stereo not shown) [SL 73-005, Cyclopropylmethyl apovincaminate], in series [1], the LD50 is 380 mg/kg. Further, in series [2], the ED (100% increase in survival time) is 6 mg/kg and the “therapeutic index relative to that of vincamine (times more favourable)” value is reported as 2.5 times.

In series [1], `CCC12CCCN3CCc4c(n(c5ccccc45)C(C(=O)OCC4CC4)C1)C32` (stereo not shown) [SL 73-041, Cyclopropylmethyl desoxyvincaminate] gave an LD50 of 260 mg/kg. Moreover, in series [2], the ED (100% increase in survival time) is 6 mg/kg and the “therapeutic index relative to that of vincamine (times more favourable)” value was 1.6 times.

In series [1], `CC[C@]12CCCN3CCc4c(n(c5ccccc45)[C@@](O)(C(=O)OC)C1)[C@@H]32` [Vincamine, vincamine, reference compound] registered an LD50 of 215 mg/kg. In series [2], the ED (100% increase in survival time) came out at 8 mg/kg.
